Converted amounts (≈) assume the structure as drawn. Where two headings read alike, the source gives them in different places. Where a SMILES comes first, the peptide text is derived from it.
What was measured:
[1] = system: M. tuberculosis; settings: cited from earlier work
[2] = molecular target: extracellular glutamine synthetase (Mycobacterium tuberculosis, UniProt P9WN39); settings: 20 μM; cited from earlier work
[3] = system: poly-L-glutamate/glutamine cell wall structure; settings: 20 μM; cited from earlier work
[4] = system: M. tuberculosis Erdman
[5] = system: M. smegmatis 1-2c
[6] = system: M. tuberculosis Erdman; assay: Growth of M. tuberculosis Erdman broth cultures (colony forming units); assay type: cell-based
[7] = system: M. tuberculosis Erdman; assay: microbe, parasite or virus in culture; settings: Mycobacterium tuberculosis
[8] = system: M. smegmatis 1-2c; assay: microbe, parasite or virus in culture; settings: Mycolicibacterium smegmatis, 12C

extracellular glutamine synthetase, sequence (P9WN39 2-478 limits assumed): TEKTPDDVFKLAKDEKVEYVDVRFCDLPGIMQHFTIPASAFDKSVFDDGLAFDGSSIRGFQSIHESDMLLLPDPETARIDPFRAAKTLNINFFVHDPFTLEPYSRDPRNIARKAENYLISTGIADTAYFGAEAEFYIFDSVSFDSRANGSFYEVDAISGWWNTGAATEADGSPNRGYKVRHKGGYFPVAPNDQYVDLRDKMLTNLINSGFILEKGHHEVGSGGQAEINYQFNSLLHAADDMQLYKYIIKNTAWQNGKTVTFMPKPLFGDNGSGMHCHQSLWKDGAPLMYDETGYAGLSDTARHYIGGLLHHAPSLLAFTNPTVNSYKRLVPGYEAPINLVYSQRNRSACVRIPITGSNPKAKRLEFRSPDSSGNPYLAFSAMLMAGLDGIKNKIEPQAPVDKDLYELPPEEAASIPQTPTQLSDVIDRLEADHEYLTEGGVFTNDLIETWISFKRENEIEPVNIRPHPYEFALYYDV

Compound: CS(=N)(=O)CC[C@H](N)C(=O)O (stereo partly drawn) [L-methionine-S-sulfoximine]
- inhibition of bacterial growth ([1]; 2 μM): 1.5-2 log units
- reduction of bacterial growth ([1]; 20 μM): ≥ 2.5 log units
- reduction of extracellular glutamine synthetase activity [2]: 80%
- reduction of the amount of the poly-L-glutamate/glutamine cell wall structure [3]: 93%

Compound: CC(C)C[C@@H]1NC(=O)[C@@H](Cc2ccccc2)NC(=O)[C@H](CCN)NC(=O)[C@@H](NC(=O)[C@H](CCN)NC(=O)[C@@H](N)[C@@H](C)O)CCNC(=O)[C@H]([C@@H](C)O)NC(=O)[C@H](CCN)NC(=O)[C@H](CCN)NC1=O [polymyxin B nonapeptide] (HELM PEPTIDE1{T.[Dab].[Dab].[Dab].[dF].L.[Dab].[Dab].T}$PEPTIDE1,PEPTIDE1,3:R3-9:R2$$$V2.0; N-terminus assumed)
- MIC [4]: ~5 µg/mL (≈ 5.19 µM)
- MIC [5]: ~5 µg/mL (≈ 5.19 µM)

Compound: NCC[C@H](O)C(=O)N[C@@H]1C[C@H](N)[C@@H](O[C@H]2O[C@H](CN)[C@@H](O)[C@H](O)[C@H]2O)[C@H](O)[C@H]1O[C@H]1O[C@H](CO)[C@@H](O)[C@H](N)[C@H]1O [amikacin]
- antibacterial effect of free amikacin ([6]; 1 μM): bacteriostatic
- antibacterial effect of free amikacin ([6]; 5.8 μg per ml (10 μM)): strongly bactericidal

Compound: CC[C@@H](CO)NCCN[C@@H](CC)CO [ethambutol]
- MIC [7]: ~5 µg/mL (≈ 24.5 µM)
- MIC [8]: ~0.01 µg/mL (≈ 0.0489 µM)
